Experimental data published in PMC7749516, “Safety and nonclinical and clinical pharmacokinetics of PC945, a novel inhaled triazole antifungal agent” (Pharmacology Research & Perspectives, 2020).
Where “and” joins values, the source holds several entries; their conditions need not be identical. Identical values can stand only once.

Assays:
[1] = First-in-human safety and tolerability (adverse events, spirometry); type: in vivo; conditions: for No. of subjects with treatment‐emergent adverse events attributed to study drug / Subjects with drug-related adverse event: Cough / Subjects with drug-related adverse event: Diarrhea / Subjects with drug-related adverse event: Dizziness / Subjects with drug-related adverse event: Fatigue / Subjects with drug-related adverse event: Feces soft / Subjects with drug-related adverse event: Headache / Subjects with drug-related adverse event: Lethargy / Subjects with drug-related adverse event: Muscle spasms / Subjects with drug-related adverse event: Nausea / Subjects with drug-related adverse event: Productive cough / Subjects with drug-related adverse event: Throat tightness: N = 6
Procedure: This PC945 first‐in‐human clinical trial (ClinicalTrials.gov Identifier: NCT02715570) was a two‐part randomized, placebo‐controlled study to assess the safety and tolerability of PC945 in both healthy subjects and subjects with mild asthma, conducted at Parexel Early Phase Clinical Unit (Harrow, UK). The study was considered single‐blind as the appearance of active and placebo doses were different, however, it was conducted in a double‐blind manner (employing separate dosing and assessment teams).
Part one consisted of a single dose escalation study (Cohort 1) and a repeat dose study (Cohort 2) of inhaled PC945 in healthy subjects. Part two comprised a single dose study of inhaled PC945 in subjects with mild asthma (Cohort 3). The doses selected were predicted to achieve target lung concentrations above the IC90/MIC90 for A. fumigatus (based on data from a range of in vitro and in vivo systems) throughout a 24‐hour period and with a suitable safety margin based on animal toxicology data.
Safety was evaluated based on assessments of adverse events, physical examination, vital signs, 12‐lead electrocardiogram, spirometry and clinical laboratory tests. The verbatim terms used to identify adverse events were coded using the Medical Dictionary for Regulatory Activities (version 20.1). All adverse events were mapped to system organ class and preferred term.
Spirometry parameters (FEV1 and FVC) were measured in all subjects to evaluate the local tolerability and potential for bronchospasm of PC945 in accordance with American Thoracic Society/European Respiratory Society guidelines. Predicted values were calculated using National Health and Nutrition Examination Survey reference equations. ^18 , ^19

[2] = In vitro plasma protein binding; type: in vitro ADME; conditions: 0.1‐50 µmol/L
Procedure: Plasma protein binding of PC945 was determined by […] in pooled plasma samples from human, dog, rat, and mouse. PC945 was tested at 0.1, 1, 5, 25, and 50 µmol/L in plasma for each species. PC945‐containing plasma samples were centrifuged at 238 859 g for 20 hours at 37°C. Supernatant was removed and diluted. The concentration of unbound PC945 was determined using LC‐MS/MS, from which the extent of protein binding was calculated.

[3] = Cohort 1 healthy, single dose 0.5 mg
[4] = Cohort 1 healthy, single dose 2 mg
[5] = Cohort 1 healthy, single dose 5 mg
[6] = Cohort 1 healthy, single dose 10 mg
[7] = Cohort 2 healthy, 5 mg once daily for 7 days
[8] = Cohort 3 mild asthma, single dose 5 mg

Cc1cc(N2CCN(c3ccc(C(=O)Nc4ccc(F)cc4)cc3)CC2)ccc1OC[C@@H]1CO[C@@](Cn2cncn2)(c2ccc(F)cc2F)C1 [PC945]
No. of subjects with treatment‐emergent adverse events attributed to study drug [1, 3]: 1 (16.67) n (%) | Subjects with drug-related adverse event: Cough [1, 3]: 0 n (%) | Subjects with drug-related adverse event: Diarrhea [1, 3]: 0 n (%) | Subjects with drug-related adverse event: Dizziness [1, 3]: 0 n (%) | Subjects with drug-related adverse event: Fatigue [1, 3]: 1 (16.67) n (%) | Subjects with drug-related adverse event: Feces soft [1, 3]: 0 n (%) | Subjects with drug-related adverse event: Headache [1, 3]: 0 n (%) | Subjects with drug-related adverse event: Lethargy [1, 3]: 0 n (%) | Subjects with drug-related adverse event: Muscle spasms [1, 3]: 0 n (%) | Subjects with drug-related adverse event: Nausea [1, 3]: 0 n (%) | Subjects with drug-related adverse event: Productive cough [1, 3]: 0 n (%) | Subjects with drug-related adverse event: Throat tightness [1, 3]: 0 n (%) | No. of subjects with treatment‐emergent adverse events attributed to study drug [1, 4]: 0 n (%) | Subjects with drug-related adverse event: Cough [1, 4]: 0 n (%) | Subjects with drug-related adverse event: Diarrhea [1, 4]: 0 n (%) | Subjects with drug-related adverse event: Dizziness [1, 4]: 0 n (%) | Subjects with drug-related adverse event: Fatigue [1, 4]: 0 n (%) | Subjects with drug-related adverse event: Feces soft [1, 4]: 0 n (%) | Subjects with drug-related adverse event: Headache [1, 4]: 0 n (%) | Subjects with drug-related adverse event: Lethargy [1, 4]: 0 n (%) | Subjects with drug-related adverse event: Muscle spasms [1, 4]: 0 n (%) | Subjects with drug-related adverse event: Nausea [1, 4]: 0 n (%) | Subjects with drug-related adverse event: Productive cough [1, 4]: 0 n (%) | Subjects with drug-related adverse event: Throat tightness [1, 4]: 0 n (%) | No. of subjects with treatment‐emergent adverse events attributed to study drug [1, 5]: 2 (33.33) n (%) | Subjects with drug-related adverse event: Cough [1, 5]: 0 n (%) | Subjects with drug-related adverse event: Diarrhea [1, 5]: 0 n (%) | Subjects with drug-related adverse event: Dizziness [1, 5]: 1 (16.67) n (%) | Subjects with drug-related adverse event: Fatigue [1, 5]: 0 n (%) | Subjects with drug-related adverse event: Feces soft [1, 5]: 1 (16.67) n (%) | Subjects with drug-related adverse event: Headache [1, 5]: 1 (16.67) n (%) | Subjects with drug-related adverse event: Lethargy [1, 5]: 1 (16.67) n (%) | Subjects with drug-related adverse event: Muscle spasms [1, 5]: 1 (16.67) n (%) | Subjects with drug-related adverse event: Nausea [1, 5]: 1 (16.67) n (%) | Subjects with drug-related adverse event: Productive cough [1, 5]: 0 n (%) | Subjects with drug-related adverse event: Throat tightness [1, 5]: 0 n (%) | No. of subjects with treatment‐emergent adverse events attributed to study drug [1, 6]: 2 (33.33) n (%) | Subjects with drug-related adverse event: Cough [1, 6]: 0 n (%) | Subjects with drug-related adverse event: Diarrhea [1, 6]: 1 (16.67) n (%) | Subjects with drug-related adverse event: Dizziness [1, 6]: 1 (16.67) n (%) | Subjects with drug-related adverse event: Fatigue [1, 6]: 0 n (%) | Subjects with drug-related adverse event: Feces soft [1, 6]: 0 n (%) | Subjects with drug-related adverse event: Headache [1, 6]: 1 (16.67) n (%) | Subjects with drug-related adverse event: Lethargy [1, 6]: 0 n (%) | Subjects with drug-related adverse event: Muscle spasms [1, 6]: 0 n (%) | Subjects with drug-related adverse event: Nausea [1, 6]: 1 (16.67) n (%) | Subjects with drug-related adverse event: Productive cough [1, 6]: 0 n (%) | Subjects with drug-related adverse event: Throat tightness [1, 6]: 0 n (%) | No. of subjects with treatment‐emergent adverse events attributed to study drug [1, 7]: 2 (33.33) n (%) | Subjects with drug-related adverse event: Cough [1, 7]: 0 n (%) | Subjects with drug-related adverse event: Diarrhea [1, 7]: 0 n (%) | Subjects with drug-related adverse event: Dizziness [1, 7]: 0 n (%) | Subjects with drug-related adverse event: Fatigue [1, 7]: 0 n (%) | Subjects with drug-related adverse event: Feces soft [1, 7]: 0 n (%) | Subjects with drug-related adverse event: Headache [1, 7]: 1 (16.67) n (%) | Subjects with drug-related adverse event: Lethargy [1, 7]: 0 n (%) | Subjects with drug-related adverse event: Muscle spasms [1, 7]: 0 n (%) | Subjects with drug-related adverse event: Nausea [1, 7]: 1 (16.67) n (%) | Subjects with drug-related adverse event: Productive cough [1, 7]: 0 n (%) | Subjects with drug-related adverse event: Throat tightness [1, 7]: 0 n (%) | No. of subjects with treatment‐emergent adverse events attributed to study drug [1, 8]: 0 n (%) | Subjects with drug-related adverse event: Cough [1, 8]: 0 n (%) | Subjects with drug-related adverse event: Diarrhea [1, 8]: 0 n (%) | Subjects with drug-related adverse event: Dizziness [1, 8]: 0 n (%) | Subjects with drug-related adverse event: Fatigue [1, 8]: 0 n (%) | Subjects with drug-related adverse event: Feces soft [1, 8]: 0 n (%) | Subjects with drug-related adverse event: Headache [1, 8]: 0 n (%) | Subjects with drug-related adverse event: Lethargy [1, 8]: 0 n (%) | Subjects with drug-related adverse event: Muscle spasms [1, 8]: 0 n (%) | Subjects with drug-related adverse event: Nausea [1, 8]: 0 n (%) | Subjects with drug-related adverse event: Productive cough [1, 8]: 0 n (%) | Subjects with drug-related adverse event: Throat tightness [1, 8]: 0 n (%) | Deaths or serious adverse events ([1]; all cohorts): no deaths or serious adverse events | Changes in lung function ([1]; healthy subjects): No clinically significant changes in lung function | Tolerability ([1]; single doses up to 10 mg and 5 mg daily for 7 days in healthy subjects, single 5 mg in mild asthma): well tolerated | Acute bronchospasm or significant change in lung function (>15% change from baseline) ([1]; subjects with mild asthma, single 5 mg): no evidence of acute bronchospasm or significant change in lung function | Irritancy ([1]; subjects with mild asthma, single dose 5 mg): No evidence of irritancy | Mean percentage protein bound ([2]; dog plasma): 91% and 91.1% | Mean percentage protein bound ([2]; human plasma): 96.6% | Mean percentage protein bound ([2]; mouse plasma): 96.2% | Mean percentage protein bound ([2]; rat plasma): 97.8%
